One experiment concerns β-Tubulin. Put plainly: K562 cell lysis and immunoassay, β-tubulin degradation. The experiment is classed as cell-based. On the set-up: key: Y: β-tubulin bound in cells and tubulin degradation occurred. The conditions noted are these: K562 cells. How it is done:
K562 cells (ATCC) were cultured in Iscove's Modified Dulbecco's Medium (IMDM) (Wisent) supplemented with 10% FBS and 1% penicillin/streptomycin. Cells were seeded in 6-well plates at 1.71×10^6 cells/well and incubated at 37° C., 5% CO2 for 16 hours. Cells were treated with compounds at the indicated concentrations or DMSO alone and incubated at 37° C., 5% CO2 for 24 hours. Cell suspensions were centrifugated at 1,400 RPM for 5 minutes at room temperature and supernatants were discarded. Cell pellets were resuspended with 1× RIPA buffer (Millipore) and incubated on ice for 15 minutes. Protein lysates were extracted by centrifugating at 20,000 RPM for 20 minutes at 4° C. Proteins were separated and total β-Tubulin levels were quantified by Simple Western Immunoassay (ProteinSimple) using the Protein Normalization Assay Module for Jess (ProteinSimple) according to the manufacturer's protocol, using a protein concentration of 0.05 μg/μl and an antibody targeting β-Tubulin (Abcam) diluted to 1:800. β-Tubulin levels were quantified relative to the Protein Normalization Reagent and subsequently normalized to the DMSO control.

A further experiment concerns the target BMX (Homo sapiens (Human), UniProt P51813). Put plainly: HTRF KinEASE-TK kinase assay, BMX. It counts as biochemical. The note with it: for remaining activity at 1 µM: 1 uM compound; for remaining activity at 1 µM / remaining activity at 10 µM: 3 h preincubation; for remaining activity at 10 µM: 10 uM compound. Summed up: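 Phosphorylation was quantified by HTRF KinEASE-TK as the 665/620 nm ratio, read 60 min after EDTA stop with SA-XL665 (31.25 nM) and europium antibody. Before the reaction, 3.03 nM BMX was preincubated with compound for 3 hours at room temperature, and the reaction was started with biotinylated substrate plus ATP.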

The next experiment addresses EGFR (Homo sapiens (Human), UniProt P00533). The experiment in a line: HTRF KinEASE-TK kinase assay, EGFR. The conditions noted are these: 3 h preincubation; for remaining activity at 1 µM: 1 μM compound, read-out: % EGFR Remaining activity vs DMSO (1 μM, 3 h); for remaining activity at 10 µM: 10 μM compound, read-out: % EGFR Remaining activity vs DMSO (10 μM, 3 h). It counts as biochemical. The essentials:
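Buffer contained 5 mM MgCl2, 2 mM MnCl2 and 1 mM TCEP; compounds at two final concentrations, 1 and 10 uM, with 0.5% DMSO, pre-incubated with the enzyme.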

A further experiment has as its target FGFR4 (Homo sapiens (Human), UniProt P22455). The experiment in a line: HTRF KinEASE-TK kinase assay, FGFR4. The experiment is classed as biochemical. The note with it: for remaining activity at 1 µM: read-out: % FGFR4 Remaining activity vs DMSO (1 μM, 3 h); for remaining activity at 10 µM: read-out: % FGFR4 Remaining activity vs DMSO (10 μM, 3 h). The essentials:
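HTRF ratio (Em 665/620 nm) measured 60 min after EDTA stop with SA-XL665 (31.25 nM) and europium antibody reflects phosphorylated biotinylated substrate. Before substrate/ATP addition, 5.12 nM (0.333 ng/ul) FGFR4 sat with compound 3 h at room temperature.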

For a further experiment, the target named is JAK3 (Homo sapiens (Human), UniProt P52333). Put plainly: HTRF KinEASE-TK kinase assay, JAK3. It counts as biochemical. The note with it: for remaining activity at 1 µM: read-out: % JAK3 Remaining activity vs DMSO (1 μM, 3 h); for remaining activity at 10 µM: read-out: % JAK3 Remaining activity vs DMSO (10 μM, 3 h). The essentials:
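HTRF read-out: the Em665/Em620 ratio, measured 60 min after stopping with EDTA, 31.25 nM SA-XL665 and 100-fold diluted Eu-antibody, was taken as phosphorylated substrate. Beforehand, 0.21 nM JAK3 (0.0133 ng/µl) sat with compound for 3 h at room temperature, then biotinylated substrate plus ATP started the reaction.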

In experiment [1] the target is His-tagged BTK protein (SEQ ID NO: 1) (Homo sapiens (Human), UniProt Q06187). Put plainly: Intact mass analysis (LC-MS/MS) of covalent modification. It counts as binding. The conditions noted are these: His-tagged BTK (unmodified 32,650 Da) incubated with compound. How it is done:
The covalent modification of the proteins with the compounds were evaluated using intact mass analysis by liquid chromatography-mass spectrometry instrument (LC-MS/MS).
The reaction solution (20 μL) was prepared in 96-well plate and contained the protein (2 μM), the compound (100 μM), HEPES buffer (20 mM, pH 8), 2% DMSO, 2% glycerol, and 150 mM NaCl. The reaction was allowed to proceed for 24 h at 25° C. The reaction solution (1 μL) was injected into the LC/MS/MS without any further sample preparation.
The LC-MS/MS instrument comprises of a Waters G2-XS quadrupole-time of flight (QTof) mass spectrometer and a Waters Acuity I-class Ultra-High Performance Liquid Chromatography (UPLC) system. The I-class UPLC system includes a binary solvent manager (BSM), and a Acquity sample manager (SM). The mobile phase consisted of: A) 0.1% (v/v) formic acid in MilliQ water; B) 0.1% (v/v) formic acid acetonitrile. Gradients were run over 5 min and proceeded as follows: A:B, 85:15, 0.0-0.7 min, 85:15→15:85, 0.7-1.5 min, 10:90, 1.5-4 min, 10:90→85:15, 4-4.5 min, 85:15, 4.5-5 min. The analytical column was a Waters BEH C4 column 1.7 μm (50×1 mm) column with pore sizes of […]. The TOF MS data was collected in positive ion mode (m/z of 400-2000 Da) using MassLynx software (Waters).
The spectral deconvolution was performed using UNIFI software (Waters). The added mass of the protein upon covalent modification to cysteine residues were specified. Multiple modification of up to 8 cysteine was allowed. All the adducts with signal intensities of <2% of the base peak were ignored. The % modification was calculated as the adduct signal intensity over the total intensities of the protein peaks and the adducts.

For the next experiment, the target named is BTK (Homo sapiens (Human), UniProt Q06187). The experiment in a line: HTRF KinEASE-TK kinase assay, BTK. It counts as biochemical. The note with it: 3 h preincubation; for remaining activity at 1 µM: 1 μM compound, read-out: % BTK Remaining activity vs DMSO (1 μM, 3 h); for remaining activity at 10 µM: 10 μM compound, read-out: % BTK Remaining activity vs DMSO (10 μM, 3 h). Summed up: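 Read-out was the 665 nm to 620 nm ratio, taken 60 min after detection, reflecting phosphorylated biotinylated substrate. Before this, BTK reacted 45 min with substrate and ATP in kinase buffer supplemented with MnCl2 (10 mM), MgCl2 (5 mM), ATPγS (1 uM) and TCEP (1 mM).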
Sequence of BTK (Q06187 whole entry): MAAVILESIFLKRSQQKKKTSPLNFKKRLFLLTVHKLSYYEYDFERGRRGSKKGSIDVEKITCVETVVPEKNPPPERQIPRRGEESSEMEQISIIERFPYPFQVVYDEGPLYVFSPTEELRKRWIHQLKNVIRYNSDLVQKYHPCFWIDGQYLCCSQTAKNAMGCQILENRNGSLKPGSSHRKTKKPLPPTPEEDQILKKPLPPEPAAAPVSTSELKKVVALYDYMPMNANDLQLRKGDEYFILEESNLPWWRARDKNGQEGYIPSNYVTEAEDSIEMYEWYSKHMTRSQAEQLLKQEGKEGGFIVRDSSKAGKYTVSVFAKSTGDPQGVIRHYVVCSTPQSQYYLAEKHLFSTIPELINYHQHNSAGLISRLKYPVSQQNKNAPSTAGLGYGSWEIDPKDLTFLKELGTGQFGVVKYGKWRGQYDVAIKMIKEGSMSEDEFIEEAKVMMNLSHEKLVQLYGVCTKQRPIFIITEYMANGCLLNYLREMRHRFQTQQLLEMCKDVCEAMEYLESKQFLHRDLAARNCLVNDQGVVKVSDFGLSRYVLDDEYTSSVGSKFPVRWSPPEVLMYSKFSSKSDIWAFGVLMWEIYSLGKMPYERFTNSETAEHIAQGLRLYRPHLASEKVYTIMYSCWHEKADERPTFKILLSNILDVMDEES

Sequence of JAK3 (P52333 781-1124): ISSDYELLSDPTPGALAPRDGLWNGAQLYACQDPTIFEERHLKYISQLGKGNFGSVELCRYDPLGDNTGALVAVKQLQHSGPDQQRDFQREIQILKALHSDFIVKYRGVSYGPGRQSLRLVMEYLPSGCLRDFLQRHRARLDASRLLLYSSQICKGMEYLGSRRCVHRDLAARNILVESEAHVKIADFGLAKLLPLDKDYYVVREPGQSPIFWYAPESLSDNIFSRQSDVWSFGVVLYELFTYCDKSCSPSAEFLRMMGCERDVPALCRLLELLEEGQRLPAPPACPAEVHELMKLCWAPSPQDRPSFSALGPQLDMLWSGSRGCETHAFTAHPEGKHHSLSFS
Sequence of EGFR (P00533 25-1210): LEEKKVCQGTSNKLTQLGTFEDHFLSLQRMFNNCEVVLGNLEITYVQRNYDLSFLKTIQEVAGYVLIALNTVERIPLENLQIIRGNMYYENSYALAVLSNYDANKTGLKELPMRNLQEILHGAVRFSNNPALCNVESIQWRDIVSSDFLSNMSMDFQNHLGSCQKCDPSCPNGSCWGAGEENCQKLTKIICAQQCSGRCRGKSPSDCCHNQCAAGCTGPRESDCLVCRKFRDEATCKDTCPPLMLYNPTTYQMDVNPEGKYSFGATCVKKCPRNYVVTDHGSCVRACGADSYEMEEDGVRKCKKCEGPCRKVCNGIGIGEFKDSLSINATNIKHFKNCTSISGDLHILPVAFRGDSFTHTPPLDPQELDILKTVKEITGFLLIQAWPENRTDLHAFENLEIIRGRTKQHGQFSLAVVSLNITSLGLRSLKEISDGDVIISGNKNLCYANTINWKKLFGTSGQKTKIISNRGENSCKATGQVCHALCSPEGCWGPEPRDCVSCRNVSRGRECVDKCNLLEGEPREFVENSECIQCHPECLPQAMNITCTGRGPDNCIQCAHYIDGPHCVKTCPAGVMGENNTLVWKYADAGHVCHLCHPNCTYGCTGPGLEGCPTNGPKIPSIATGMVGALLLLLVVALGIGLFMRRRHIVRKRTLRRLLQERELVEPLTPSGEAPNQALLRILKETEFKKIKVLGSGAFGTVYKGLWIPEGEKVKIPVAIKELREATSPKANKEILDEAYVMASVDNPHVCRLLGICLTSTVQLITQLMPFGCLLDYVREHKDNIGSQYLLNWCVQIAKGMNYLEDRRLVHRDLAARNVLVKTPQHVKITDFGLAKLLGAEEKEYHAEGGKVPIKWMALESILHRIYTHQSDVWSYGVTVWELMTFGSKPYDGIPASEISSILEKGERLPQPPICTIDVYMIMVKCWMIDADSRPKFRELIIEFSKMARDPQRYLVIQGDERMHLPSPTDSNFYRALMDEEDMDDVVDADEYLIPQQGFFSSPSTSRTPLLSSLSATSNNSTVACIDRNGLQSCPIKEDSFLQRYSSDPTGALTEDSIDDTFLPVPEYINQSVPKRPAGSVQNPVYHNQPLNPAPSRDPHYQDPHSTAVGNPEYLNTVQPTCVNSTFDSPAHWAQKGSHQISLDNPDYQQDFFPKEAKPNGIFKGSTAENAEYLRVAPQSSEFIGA
Sequence of FGFR4 (P22455 22-802): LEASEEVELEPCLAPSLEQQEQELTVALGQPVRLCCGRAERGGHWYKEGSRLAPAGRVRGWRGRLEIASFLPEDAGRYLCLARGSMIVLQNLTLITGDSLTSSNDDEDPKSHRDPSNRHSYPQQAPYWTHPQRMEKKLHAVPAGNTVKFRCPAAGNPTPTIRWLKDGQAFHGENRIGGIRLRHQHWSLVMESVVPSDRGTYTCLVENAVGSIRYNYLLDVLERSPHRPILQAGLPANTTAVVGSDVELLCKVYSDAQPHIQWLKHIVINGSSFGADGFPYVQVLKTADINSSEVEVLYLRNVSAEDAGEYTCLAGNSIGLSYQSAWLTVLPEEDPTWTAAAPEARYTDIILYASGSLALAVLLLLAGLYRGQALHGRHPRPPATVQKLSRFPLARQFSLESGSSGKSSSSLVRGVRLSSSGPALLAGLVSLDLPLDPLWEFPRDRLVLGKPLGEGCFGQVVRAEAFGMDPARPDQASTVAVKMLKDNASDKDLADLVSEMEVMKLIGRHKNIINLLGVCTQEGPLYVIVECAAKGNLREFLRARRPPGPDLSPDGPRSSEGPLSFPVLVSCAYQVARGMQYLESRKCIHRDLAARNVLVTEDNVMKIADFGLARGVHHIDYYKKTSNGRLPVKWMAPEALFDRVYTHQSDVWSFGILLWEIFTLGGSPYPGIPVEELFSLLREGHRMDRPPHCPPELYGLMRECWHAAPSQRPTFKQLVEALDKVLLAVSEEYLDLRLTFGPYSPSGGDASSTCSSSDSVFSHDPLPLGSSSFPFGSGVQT
Sequence of BMX (P51813 whole entry): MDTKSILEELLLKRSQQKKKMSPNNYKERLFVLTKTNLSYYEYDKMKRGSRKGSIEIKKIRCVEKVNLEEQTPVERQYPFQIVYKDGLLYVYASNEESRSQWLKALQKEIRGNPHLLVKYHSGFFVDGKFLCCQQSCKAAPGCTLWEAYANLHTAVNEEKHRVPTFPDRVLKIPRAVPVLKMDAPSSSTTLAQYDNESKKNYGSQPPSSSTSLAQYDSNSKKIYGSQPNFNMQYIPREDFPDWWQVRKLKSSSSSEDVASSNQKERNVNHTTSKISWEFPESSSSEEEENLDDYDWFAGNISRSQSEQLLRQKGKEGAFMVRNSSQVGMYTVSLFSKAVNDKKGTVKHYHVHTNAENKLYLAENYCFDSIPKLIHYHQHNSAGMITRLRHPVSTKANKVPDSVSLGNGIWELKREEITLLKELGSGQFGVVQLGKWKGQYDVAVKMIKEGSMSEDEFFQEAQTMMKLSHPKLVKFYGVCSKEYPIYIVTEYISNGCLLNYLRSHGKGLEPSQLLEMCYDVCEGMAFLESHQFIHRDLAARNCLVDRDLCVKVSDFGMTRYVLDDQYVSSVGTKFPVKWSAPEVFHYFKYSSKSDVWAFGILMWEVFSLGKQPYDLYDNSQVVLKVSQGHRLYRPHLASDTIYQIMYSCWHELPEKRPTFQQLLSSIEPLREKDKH
Sequence of His-tagged BTK protein (SEQ ID NO: 1) (Q06187 other isoform, or with tags, fused parts or gaps): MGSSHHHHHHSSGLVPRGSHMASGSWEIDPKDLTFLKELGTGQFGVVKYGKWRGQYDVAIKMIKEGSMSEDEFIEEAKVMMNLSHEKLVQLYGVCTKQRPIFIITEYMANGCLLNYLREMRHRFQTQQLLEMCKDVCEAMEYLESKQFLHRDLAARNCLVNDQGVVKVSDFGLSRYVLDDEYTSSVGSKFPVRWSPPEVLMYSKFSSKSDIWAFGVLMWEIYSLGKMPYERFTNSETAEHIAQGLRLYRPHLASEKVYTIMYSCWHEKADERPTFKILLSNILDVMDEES

In the case of `COc1ccc(/N=C/c2c(F)c(F)c(F)c(F)c2S(C)(=O)=O)cc1F` [Compound I-11, (E)-N-(3-fluoro-4-methoxyphenyl)-1-(2,3,4,5-tetrafluoro-6-(methylsulfonyl)phenyl) methanimine], the “Beta-tubulin K562, compound concentration, 24 hrs” value (shortened to “Beta-tubulin K562”) with β-Tubulin (compound concentration 0.5) is recorded as “Y”.
Take `COc1ccc(NC(=O)c2c(F)c(F)c(F)c(F)c2S(=O)(=O)N(C)C)cc1F` [Compound I-9, 2-(N,N-dimethylsulfamoyl)-3,4,5,6-tetrafluoro-N-(3-fluoro-4-methoxyphenyl) benzamide]: the “Beta-tubulin K562” value in the experiment with β-Tubulin (compound concentration 10) is “Y”.
For `COc1ccc(OCc2c(F)c(F)c(F)c(F)c2S(C)(=O)=O)cc1F` [Compound I-17, 1,2,3,4-tetrafluoro-5-((3-fluoro-4-methoxyphenoxy)methyl)-6-(methylsulfonyl) benzene], in the experiment on β-Tubulin (compound concentration 5), the “Beta-tubulin K562” value was “Y”.
In the case of `COCCOc1ccc(Nc2ncc(F)c(NCCCNS(=O)(=O)c3c(F)c(F)c(F)c(F)c3CF)n2)cc1` [Compound I-56, 2,3,4,5-tetrafluoro-N-(3-((5-fluoro-2-((4-(2-methoxyethoxy)phenyl)amino)pyrimidin-4-yl)amino)propyl)-6-(fluoromethyl)benzenesulfonamide], the remaining activity at 1 µM was less than 50% on BMX; more than 90% on EGFR; 50 to 90% on FGFR4; less than 50% on JAK3; less than 50% on BTK. Besides, the remaining activity at 10 µM on BMX was less than 50%; at EGFR it was more than 90%; on FGFR4 it was less than 50%; at JAK3, less than 50%; on BTK it was less than 50%. For the same molecule, the IC50 on BMX (dose response) was less than 1 µM. In addition, the “covalent adduct mass (intact mass analysis, modification by one molecule)” value in experiment [1] was 33,209 Da.
Take `COCCOc1ccc(Nc2ncc(F)c(NCCCNS(=O)(=O)c3c(F)c(F)c(F)c(F)c3OC(F)F)n2)cc1` [Compound I-55, 2-(difluoromethoxy)-3,4,5,6-tetrafluoro-N-(3-((5-fluoro-2-((4-(2-methoxyethoxy)phenyl)amino)pyrimidin-4-yl)amino)propyl)benzenesulfonamide]: the remaining activity at 1 µM on BMX was less than 50%; on EGFR, more than 90%; on FGFR4 it was 50 to 90%; at JAK3 it was less than 50%; on BTK, less than 50%. The remaining activity at 10 µM at BMX is less than 50%; at EGFR, more than 90%; on FGFR4, less than 50%; at JAK3, less than 50%; on BTK, less than 50%. Also, the IC50 against JAK3 (dose response) is less than 1 µM. Besides, in experiment [1], the “covalent adduct mass (intact mass analysis, modification by one molecule)” value is listed as 33,243 Da.
For `COc1ccc(N(C)S(=O)(=O)c2c(F)c(F)c(F)c(F)c2C(F)(F)F)cc1F` [Compound I-7, 2,3,4,5-tetrafluoro-N-(3-fluoro-4-methoxyphenyl)-N-methyl-6-(trifluoromethyl) benzenesulfonamide], the “Beta-tubulin - K562 24 hrs (1 μM)” value in the experiment on β-Tubulin is reported as “Y”. The “Beta-tubulin K562” value in the experiment with β-Tubulin (compound concentration 0.5) was “Y”.
On to `COc1ccc(CS(=O)(=O)c2c(F)c(F)c(F)c(F)c2OCc2ccccc2)cc1F` [Compound I-16, 1-(benzyloxy)-2,3,4,5-tetrafluoro-6-((3-fluoro-4-methoxybenzyl)sulfonyl)benzene], for which the “Beta-tubulin K562” value in the experiment with β-Tubulin (compound concentration 10) is “Y”.
Turning to `COc1ccc(NS(=O)(=O)c2c(F)c(F)c(F)c(F)c2C(F)(F)F)cc1F` [Compound I-6, 2,3,4,5-tetrafluoro-N-(3-fluoro-4-methoxyphenyl)-6-(trifluoromethyl) benzenesulfonamide], the “Beta-tubulin - K562 24 hrs (1 μM)” value with β-Tubulin is “Y”. For the same molecule, the “Beta-tubulin K562” value in the experiment on β-Tubulin (compound concentration 10) is recorded as “Y”.
